# Data reported in US20030049253A1, “Polymeric conjugates for delivery of MHC-recognized epitopes via peptide vaccines” (priority 2001, published 2003).
# Legend:
# [1] = tested on: CD4+ and CD8+ splenocytes; parameters: species or system BALB/c mice; settings: mouse, in vivo
# [2] = tested on: Mouse spleen cells; experiment: In vitro cytokine assay: IFN-γ ELISA of spleen cell culture supernatants; type: in vivo; settings: spleen cells cultured with p7g peptide, 24 hours; limit of detection 5 pg/ml; FIG. 3
# Method: In vitro cytokine assay. Mouse spleen cells were cultured with p7g peptides in parallel with the ELISpot assays. Culture supernatants were collected 24 hours after addition of peptide, and the concentrations of gamma interferon (IFN-γ) were determined by enzyme-linked immunosorbent assay (ELISA). Briefly, anti-mouse IFN-γ (R46A2; monoclonal antibody, Pharmingen) was diluted in coating buffer (pH 9.6) and coated (1 μg protein/well) onto 96-well enzyme-linked immunosorbent assay (ELISA) plates (Nunc Immunoplates; Nunc. Corp., Naperville, Ill.) by overnight incubation at 4° C. The plates were washed six times in wash buffer, then blocked with PBS containing 0.05% Tween 20 (Sigma), 1% low-fat dry milk (Carnation; Nestle Food Corp., Glendale, Calif.), and 4% goat serum (KPL Laboratories, Gaithersburg, Md.) for 1 hour. After washing, each plate was incubated with samples diluted in PBS containing 1% BSA and 0.05% Tween 20 for 1 hour. The plates were then incubated with rabbit anti-mouse IFN-γ (Cytlmmune Sciences, Inc. College, Md.) diluted 1:1000 in the same PBS solution for 1 hour and washed again six times. […] The bound mouse IFN-γ was quantitated by calorimetric reaction using p-nitrophenyl phosphate as a substrate (KPL Laboratories). The optical density (OD) was measured at 405 nm in a Bio-Tek Plate Reader (Winooski, Vt.). […]
# [3] = tested on: R5 and dual-tropic (R5/X4) HIV-1 strains; settings: monocyte-derived macrophages, microglia, primary CD4(+) T cells; cited from earlier work
# [4] = biological target: CD4 receptor (Homo sapiens, UniProt P01730); settings: in vitro; cited from earlier work
# [5] = tested on: human amyloid β amino acid residues 1-42 (Aβ42 peptide); experiment: Antibody titer to Aβ42 peptide in vaccinated mice; type: in vivo; settings: 100 μg Aβ42 peptide per injection s.c., day 0 and day 14; FIG. 5
# Method: Mice were immunized with 100 μg Aβ42 peptide per injection. Aβ42 in PBS alone was injected as control. Mice were primed s.c. on day 0 and boosted on day 14. Detection used goat anti-mouse immunoglobulin conjugated to alkaline phosphatase and p-nitrophenyl phosphate.
substance,measurement,setting,value
AMQMLKETI [free p7g peptide],"CTL response and INF-γ expression (intracellular staining, flow cytometry)",[1],no CTL or INF-γ expression
same,concentration of IFN-γ in culture supernatants (ELISA),[2],no measurable IFN-γ
AS TTTNYT [Peptide T],replication of HIV-1 strains,[3],inhibits replication
same,binding of isolated gp120 and HIV-1 to the CD4 receptor,[4],inhibition of the binding
Aβ42 peptide alone,antibody titer to Aβ42 peptide,[5],no detectable anti-peptide antibody
Aβ42 peptide linked to HA,antibody titer to Aβ42 peptide,[5],substantial
